Data from US20260209214A1, “LSD1 MODULATORS” (RECURSION PHARMACEUTICALS, INC., priority 2022, published 2026).

These compounds were tested against Recombinant human LSD1 (Homo sapiens, UniProt O60341) (assay: LSD1 inhibition assay (HTRF LSD1 Histone H3K4 mono-demethylation assay, me1->me0)). Conditions: 20 nM recombinant human LSD1, 95 nM H3K4(me1) biotinylated peptide, 15 min preincubation, 60 min at 25° C., read-out: LSD1 inhibition IC50 (nM range).
Type: biochemical
Summary of the method: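 Recombinant human LSD1 (20 nM) pre-incubated 15 min with 10 semi-log compound doses, then 95 nM biotinylated H3K4me1 peptide for 60 min at 25 °C in pH 8.5 Tris/NaCl buffer with 10 μM FAD, 1 mM DTT. HTRF me0-antibody read after 90 min; IC50 from 4-parameter fit.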

IC50 | SMILES
10 to 25 nM | C[C@@]1(N)CCN(Cc2cccc(-c3ccc(C#N)c(F)c3)c2-c2ccns2)C1 [Example 242, 3'-{[(3R)-3-amino-3-methylpyrrolidin-1-yl]methyl}-3-fluoro-2'-(1,2-thiazol-5-yl)-[1,1'-biphenyl]-4-carbonitrile]
100 to 1000 nM | COCC1CN(c2ccc(CC3CNCCO3)cc2-c2ccc(C#N)c(F)c2)C1 (stereo not drawn) [Example 55, 3-fluoro-2′-[3-(methoxymethyl)azetidin-1-yl]-5′-[(morpholin-2-yl)methyl]-[1,1′-biphenyl]-4-carbonitrile]
100 to 1000 nM | N#Cc1ccc(-c2cccc(CN3CC4(N)CCC3CC4)c2Cl)cc1F [Example 328, 3'-({4-amino-2-azabicyclo[2.2.2]octan-2-yl}methyl)-2'-chloro-3-fluoro-[1,1'-biphenyl]-4-carbonitrile]
100 to 1000 nM | N#Cc1ccc(-c2cc(CC3CNCCO3)ccc2N2CCN(c3nccs3)CC2)cc1F (stereo not drawn) [Example 88, 3-fluoro-5′-[(morpholin-2-yl)methyl]-2′-[4-(1,3-thiazol-2-yl)piperazin-1-yl]-[1,1′-biphenyl]-4-carbonitrile]
10 to 25 nM | N#Cc1ccc(-c2cccc(CN3CCC[C@H]4NCC[C@H]43)c2-c2cncs2)cc1F (racemic) [Example 279, 3'-{[(3aR,7aR)-otcahydro-1H-pyrrolo[3,2-b]pyridin-4-yl]methyl}-3-fluoro-2'-(1,3-thiazol-5-yl)-[1,1'-biphenyl]-4-carbonitrile]
100 to 1000 nM | N#Cc1ccc(-c2cccc(CN3C[C@@]4(N)CC[C@@H]3C4)c2C2CC2)cc1F [Example 225, 3'-{[(1R,4R)-4-amino-2-azabicyclo[2.2.1]heptan-2-yl]methyl}-2'-cyclopropyl-3-fluoro-[1,1'-biphenyl]-4-carbonitrile]
10 to 25 nM | N#Cc1ccc(-c2cccc(C[C@@H]3CNCCO3)c2-c2ccno2)cc1 (single isomer, unassigned) [Example 7]
10 to 25 nM | CNC1CCN(Cc2cccc(-c3ccc(C#N)c(F)c3)c2-c2cnco2)C1 (stereo not drawn) [Example 336, 3-fluoro-3'-{[3-(methylamino)pyrrolidin-1-yl]methyl}-2'-(1,3-oxazol-5-yl)-[1,1'-biphenyl]-4-carbonitrile]
100 to 1000 nM | N#Cc1ccc(-c2cccc(CN3C[C@H](N)C[C@H](F)C3)c2Cl)cc1F [Example 285, 3'-{[(3R,5S)-3-amino-5-fluoropiperidin-1-yl]methyl}-2'-chloro-3-fluoro-[1,1'-biphenyl]-4-carbonitrile]
< 10 nM | N#Cc1ccc(-c2cccc(C[C@@H]3CNCCO3)c2-c2ocnc2F)cc1F (single isomer, unassigned) [Example 26]
25 to 100 nM | Cc1cc(-c2cccc(CC3CNCCO3)c2-c2ccns2)ccc1C#N (stereo not drawn) [Example 43, 3-methyl-3′-[(morpholin-2-yl)methyl]-2′-(1,2-thiazol-5-yl)-[1,1′-biphenyl]-4-carbonitrile]
100 to 1000 nM | N#Cc1ccc(-c2cc(C[C@@H]3CNCCO3)ccc2N2CCC2)cc1F (single isomer, unassigned) [Example 41]
10 to 25 nM | N#Cc1ccc(-c2cccc(CN3CC4(CCCNC4)C3)c2-c2cnco2)cc1F [Example 333, 3'-({2,6-diazaspiro[3.5]nonan-2-yl}methyl)-3-fluoro-2'-(1,3-oxazol-5-yl)-[1,1'-biphenyl]-4-carbonitrile]
10 to 25 nM | Cc1cc(CC2CNCCO2)c(-c2ccns2)c(-c2ccc(C#N)cc2)c1 (stereo not drawn) [Example 53, 5′-methyl-3′-[(morpholin-2-yl)methyl]-2′-(1,2-thiazol-5-yl)-[1,1′-biphenyl]-4-carbonitrile]
> 1000 nM | N#Cc1ccc(-c2cc(CC3CNCCO3)ccc2N[C@H]2CCCOC2)cc1F (stereo partly drawn) [Example 123, 3-fluoro-5′-[(morpholin-2-yl)methyl]-2′-{[(3S)-oxan-3-yl]amino}-[1,1′-biphenyl]-4-carbonitrile]
10 to 25 nM | Cn1cc2cc(-c3ccc(CN4C[C@]5(N)CC[C@H]4C5)cc3-c3ccc(C#N)c(F)c3)ccc2n1 [Example 264, 5'-{[(1S,4S)-4-amino-2-azabicyclo[2.2.1]heptan-2-yl]methyl}-3-fluoro-2'-(2-methyl-2H-indazol-5-yl)-[1,1'-biphenyl]-4-carbonitrile]
10 to 25 nM | N#Cc1ccc(-c2cccc(CC3CNCCO3)c2-c2ocnc2F)cc1 (stereo in doubt) [Example 2, 2′-(4-fluoro-1,3-oxazol-5-yl)-3′-{[(2R)-morpholin-2-yl]methyl}-[1,1′-biphenyl]-4-carbonitrile]
10 to 25 nM | N#Cc1ccc(-c2cccc(C[C@@H]3CNCCO3)c2-c2ccno2)cc1F (single isomer, unassigned) [Example 13]

Further lines, the compound ahead of its results:

SMILES | IC50
COc1ccc(C2CN(c3ccc(CC4CNCCO4)cc3-c3ccc(C#N)c(F)c3)C2)cn1 (stereo not drawn) [Example 86, 3-fluoro-2′-[3-(6-methoxypyridin-3-yl)azetidin-1-yl]-5′-[(morpholin-2-yl)methyl]-[1,1′-biphenyl]-4-carbonitrile] | 100 to 1000 nM
N#Cc1ccc(-c2cc(CC3CNCCO3)ccc2N2CCCC2)cc1F (stereo not drawn) [Example 147, 3-fluoro-5′-[(morpholin-2-yl)methyl]-2′-(pyrrolidin-1-yl)-[1,1′-biphenyl]-4-carbonitrile] | 100 to 1000 nM
N#Cc1ccc(-c2cccc(CC3CNCCO3)c2N2CC(O)C2)cc1F (stereo not drawn) [Example 159, 3-fluoro-2′-(3-hydroxyazetidin-1-yl)-3′-[(morpholin-2-yl)methyl]-[1,1′-biphenyl]-4-carbonitrile] | > 1000 nM
N#Cc1ccc(-c2cccc(CC3CNCCCO3)c2C2CC2)cc1F (stereo not drawn) [Example 82, 2′-cyclopropyl-3-fluoro-3′-[(1,4-oxazepan-2-yl)methyl]-[1,1′-biphenyl]-4-carbonitrile] | 25 to 100 nM
N#Cc1ccc(-c2cccc(CN3[C@H]4CC[C@@H]3[C@H](N)C4)c2C2CC2)cc1F (single isomer, unassigned) [Example 186] | 10 to 25 nM
CC1CCN(c2ccc(CN3[C@@H]4CC[C@H]3[C@@H](N)C4)cc2-c2ccc(C#N)c(F)c2)CC1 (racemic) [Example 259, 5'-{[(1S,2S,4R)-2-amino-7-azabicyclo[2.2.1]heptan-7-yl]methyl}-3-fluoro-2'-(4-methylpiperidin-1-yl)-[1,1'-biphenyl]-4-carbonitrile] | 10 to 25 nM
N#Cc1ccc(-c2cc(CC3CNCCO3)ccc2N2CC(c3cccnc3)C2)cc1F (stereo not drawn) [Example 107, 3-fluoro-5′-[(morpholin-2-yl)methyl]-2′-[3-(pyridin-3-yl)azetidin-1-yl]-[1,1′-biphenyl]-4-carbonitrile] | 100 to 1000 nM
N#Cc1ccc(-c2cccc(Cn3ncc4c3CNCC4)c2-c2cncs2)cc1F [Example 280, 3-fluoro-3'-({1H,4H,5H,6H,7H-pyrazolo[3,4-c]pyridin-1-yl}methyl)-2'-(1,3-thiazol-5-yl)-[1,1'-biphenyl]-4-carbonitrile] | 100 to 1000 nM
N#Cc1ccc(-c2cccc(CN3C[C@H](N)C[C@H](C(F)(F)F)C3)c2Cl)cc1F [Example 326, 3'-{[(3R,5S)-3-amino-5-(trifluoromethyl)piperidin-1-yl]methyl}-2'-chloro-3-fluoro-[1,1'-biphenyl]-4-carbonitrile] | > 1000 nM
N#Cc1ccc(-c2cccc(CC3CNCCCO3)c2N2CCC2)cc1F (stereo not drawn) [Example 46, 2′-(azetidin-1-yl)-3-fluoro-3′-[(1,4-oxazepan-2-yl)methyl]-[1,1′-biphenyl]-4-carbonitrile] | 25 to 100 nM
COCC1CCN(c2ccc(CC3CNCCO3)cc2-c2ccc(C#N)c(F)c2)CC1 (stereo not drawn) [Example 67, 3-fluoro-2′-[4-(methoxymethyl)piperidin-1-yl]-5′-[(morpholin-2-yl)methyl]-[1,1′-biphenyl]-4-carbonitrile] | 25 to 100 nM
N#Cc1ccc(-c2cccc(CN3[C@@H]4CC[C@H]3[C@@H](N)C4)c2-c2cccs2)cc1F (racemic) [Example 243, 3'-{[(1S,2S,4R)-2-amino-7-azabicyclo[2.2.1]heptan-7-yl]methyl}-3-fluoro-2'-(thiophen-2-yl)-[1,1'-biphenyl]-4-carbonitrile] | 25 to 100 nM
COCc1c(CN2[C@@H]3CC[C@H]2[C@@H](N)C3)cccc1-c1ccc(C#N)c(F)c1 (racemic) [Example 320, 3'-{[(1S,2S,4R)-2-amino-7-azabicyclo[2.2.1]heptan-7-yl]methyl}-3-fluoro-2'-(methoxymethyl)-[1,1'-biphenyl]-4-carbonitrile] | 100 to 1000 nM
COCc1ncc(-c2ccc(CC3CNCCO3)cc2-c2ccc(C#N)c(F)c2)o1 (stereo not drawn) [Example 130, 3-fluoro-2′-[2-(methoxymethyl)-1,3-oxazol-5-yl]-5′-[(morpholin-2-yl)methyl]-[1,1′-biphenyl]-4-carbonitrile] | > 1000 nM
COC1CCN(c2ccc(CN3[C@@H]4CC[C@H]3[C@@H](N)C4)cc2-c2ccc(C#N)c(F)c2)CC1 (racemic) [Example 260, 5'-{[(1S,2S,4R)-2-amino-7-azabicyclo[2.2.1]heptan-7-yl]methyl}-3-fluoro-2'-(4-methoxypiperidin-1-yl)-[1,1'-biphenyl]-4-carbonitrile] | 10 to 25 nM
